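Test compounds were applied to cells in 96-well plates for 48 hours at 5 doses. TGI: total growth inhibition.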

The first experiment relates to HS 578T breast. Briefly: growth of human tumour cells (NCI), 48 h.
As to `COc1ccc(NC(=O)CC(=O)N2N=C(N3c4ccccc4Sc4ccccc43)CC2c2ccccc2)cc1` (stereo unspecified), the TGI worked out at 96.9 µM.

Compound `O=C(O)CCC(=O)OC1N=C(c2ccccc2Cl)c2cc([N+](=O)[O-])ccc2NC1=O` (stereo unspecified) gave a TGI above 100 µM.

On to `COc1ccc(C2=N/C(=C\c3ccccc3)C(=O)O2)cc1`, for which the TGI is above 100 µM.

`CC1(C)C2CCC1(C)[C@H](n1c(=O)n([C@@H]3CC4CCC3(C)C4(C)C)c(=O)n([C@@H]3CC4CCC3(C)C4(C)C)c1=O)C2` returned a TGI above 100 µM.

Turning to `CC(=N/N=C/c1ccccn1)/C(C)=N/N=C(C)/C(C)=N/N=C(C)/C(C)=N/N=C(C)/C(C)=N\N=C\c1ccccn1`, the TGI is above 100 µM.

In the case of `Cc1ccc(-c2[nH]c(=O)n(C3OC(CO)C(O)C(O)C3O)c(=O)c2C#N)cc1` (stereo unspecified), the TGI is above 100 µM.

The compound `Cc1cc(C(=O)CCCCOc2ccc(C3=NCCO3)cc2)c(C)n1C` showed a TGI above 100 µM.

The subject of another experiment is SK-MEL-28 melanoma. Description: growth of human tumour cells (NCI), 48 h.
In turn, `CC1=NN(c2cccc(Cl)c2)C2(SCC(=O)N2c2nc3ccccc3s2)/C1=C\c1ccccc1O` (stereo unspecified) showed a TGI above 100 µM.

`CCCCCCOc1ccc(C(=O)NOC)cc1` gave a TGI above 100 µM.

Regarding `Cc1c(S(=O)(=O)c2ccccc2)c(N)n(CCN(C)C)c1C`, the TGI was above 100 µM.

In turn, `CC1CCC(C(=O)O)(C(Br)C(=O)O)CC1` (stereo unspecified) displayed a TGI above 100 µM.

On to `COc1cc(NS(C)(=O)=O)ccc1Nc1cc(C)[nH]c2ccc3nccc3c12`, for which the TGI was above 100 µM.

`CCOC(=O)Cn1c(=O)c2nc(SC)sc2n(-c2ccccc2)c1=O` yielded a TGI above 100 µM.

Turning to `COc1ccc(-c2nc(SCC(=O)N/N=C/c3ccc(N(C)C)cc3)[nH]c2-c2ccc(OC)cc2)cc1`, the TGI is above 100 µM.

`c1c[nH]c(-c2ccc(-c3ccc[nH]3)c3nsnc23)c1` had a TGI above 100 µM.

Turning to `CS(=O)(=O)OCC(CCl)(CCl)CCl`, the TGI was above 100 µM.

For `N#Cc1c(-c2ccccc2)/c(=C\Nc2ccc(F)cc2)c(=O)n2c1nc1ccccc12`, the TGI was above 100 µM.

`CCN(CC)CCn1c(=O)c2cccnc2n2c3c(=O)n(C)c(=O)n(C)c3nc12` gave a TGI above 100 µM.

Take `CCOC(=O)C1=C(C)C2C=C(c3cccs3)CC(c3ccc(Cl)cc3)=C2OC1=O` (stereo unspecified): the TGI is above 100 µM.

For the compound `OCCc1ccsc1-c1sc(-c2cc(CCO)c(-c3sccc3CCO)s2)cc1CCO`, the TGI is 41.4 µM.

As for `Cc1cc2c3c(nc4ccccc42)C(=O)c2ccccc2-c3n1`, the TGI was determined as 43.3 µM.

For `CCOC(=O)c1nc2c(nc1C(=O)OCC)C(=O)c1ccccc1C2=O`, the TGI amounted to 3.01 µM.

`CCOC(=O)c1c(C)nc2c3ccccc3c(C#N)c(C)n12` gave a TGI above 100 µM.

With `Cc1ccc(C(=C2Sc3ccccc3S2)C(=C2Sc3ccccc3S2)c2ccc(C)s2)s1`, the TGI was above 100 µM.

`CCCCC(C(=O)NCCNC(=O)CCC(=O)N(C)O)C(=O)NCCNC(=O)CCC(=O)N(C)O`: the TGI is above 100 µM.

`O=c1[nH]c(Nc2nc3ccccc3[nH]2)nc(O)c1-c1ccccc1` gave a TGI above 100 µM.

With `COc1cccc2c1OC1(C=C2)Oc2ccccc2C(=O)N1C` (stereo unspecified), the TGI is above 100 µM.

For `CC1=NS(=O)(=O)c2ccccc2N1`, the TGI is above 100 µM.

`O=C(CC(C(=O)c1ccsc1)c1ccc2c(c1)OCO2)c1ccccc1` (stereo unspecified) returned a TGI above 100 µM.

Regarding `COc1ccc(NC(=O)CC(=O)N2N=C(N3c4ccccc4Sc4ccccc43)CC2c2ccccc2)cc1` (stereo unspecified), the TGI was above 100 µM.

With `O=C(O)CCC(=O)OC1N=C(c2ccccc2Cl)c2cc([N+](=O)[O-])ccc2NC1=O` (stereo unspecified), the TGI was above 100 µM.

Compound `COc1ccc(C2=N/C(=C\c3ccccc3)C(=O)O2)cc1` returned a TGI above 100 µM.

The compound `CC1(C)C2CCC1(C)[C@H](n1c(=O)n([C@@H]3CC4CCC3(C)C4(C)C)c(=O)n([C@@H]3CC4CCC3(C)C4(C)C)c1=O)C2` displayed a TGI above 100 µM.

In turn, `CSc1nsc(-c2ccccc2)[s+]1` showed a TGI above 100 µM.

`CC(=N/N=C/c1ccccn1)/C(C)=N/N=C(C)/C(C)=N/N=C(C)/C(C)=N/N=C(C)/C(C)=N\N=C\c1ccccn1` returned a TGI above 100 µM.

The compound `Cc1ccc(-c2[nH]c(=O)n(C3OC(CO)C(O)C(O)C3O)c(=O)c2C#N)cc1` (stereo unspecified) returned a TGI above 100 µM.

Regarding `Cc1cc(C(=O)CCCCOc2ccc(C3=NCCO3)cc2)c(C)n1C`, the TGI came out at 83.1 µM.

The test system of a further experiment is K-562 leukemia. Description: growth of human tumour cells (NCI), 48 h.
For the compound `CC1=NN(c2cccc(Cl)c2)C2(SCC(=O)N2c2nc3ccccc3s2)/C1=C\c1ccccc1O` (stereo unspecified), the TGI was above 100 µM.

Turning to `CCCCCCOc1ccc(C(=O)NOC)cc1`, the TGI was above 100 µM.

Compound `Cc1c(S(=O)(=O)c2ccccc2)c(N)n(CCN(C)C)c1C` registered a TGI above 100 µM.

With `CC1CCC(C(=O)O)(C(Br)C(=O)O)CC1` (stereo unspecified), the TGI is above 100 µM.

`COc1cc(NS(C)(=O)=O)ccc1Nc1cc(C)[nH]c2ccc3nccc3c12` showed a TGI above 100 µM.

`CCOC(=O)Cn1c(=O)c2nc(SC)sc2n(-c2ccccc2)c1=O` registered a TGI above 100 µM.

With `COc1ccc(-c2nc(SCC(=O)N/N=C/c3ccc(N(C)C)cc3)[nH]c2-c2ccc(OC)cc2)cc1`, the TGI is above 100 µM.

As for `c1c[nH]c(-c2ccc(-c3ccc[nH]3)c3nsnc23)c1`, the TGI was above 49.1 µM.

The compound `CS(=O)(=O)OCC(CCl)(CCl)CCl` displayed a TGI above 100 µM.

The compound `CCN(CC)CCn1c(=O)c2cccnc2n2c3c(=O)n(C)c(=O)n(C)c3nc12` registered a TGI above 100 µM.

As to `CCOC(=O)C1=C(C)C2C=C(c3cccs3)CC(c3ccc(Cl)cc3)=C2OC1=O` (stereo unspecified), the TGI was determined as 34.4 µM.

Compound `OCCc1ccsc1-c1sc(-c2cc(CCO)c(-c3sccc3CCO)s2)cc1CCO` gave a TGI above 100 µM.

`COc1ccc2c(c1)OCC1Cc3ccccc3OC21` (stereo unspecified): the TGI is above 100 µM.

`Cc1cc2c3c(nc4ccccc42)C(=O)c2ccccc2-c3n1` yielded a TGI of 15.1 µM.

`CCOC(=O)c1nc2c(nc1C(=O)OCC)C(=O)c1ccccc1C2=O` showed a TGI of 4.46 µM.

Regarding `CCOC(=O)c1c(C)nc2c3ccccc3c(C#N)c(C)n12`, the TGI was above 100 µM.

The compound `Cc1ccc(C(=C2Sc3ccccc3S2)C(=C2Sc3ccccc3S2)c2ccc(C)s2)s1` showed a TGI above 100 µM.

Compound `CCCCC(C(=O)NCCNC(=O)CCC(=O)N(C)O)C(=O)NCCNC(=O)CCC(=O)N(C)O` had a TGI above 100 µM.

The compound `O=c1[nH]c(Nc2nc3ccccc3[nH]2)nc(O)c1-c1ccccc1` yielded a TGI above 100 µM.

For the compound `COc1cccc2c1OC1(C=C2)Oc2ccccc2C(=O)N1C` (stereo unspecified), the TGI is above 100 µM.

Take `CC1=NS(=O)(=O)c2ccccc2N1`: the TGI is above 100 µM.

In turn, `O=C(CC(C(=O)c1ccsc1)c1ccc2c(c1)OCO2)c1ccccc1` (stereo unspecified) returned a TGI above 100 µM.

In turn, `COc1ccc(NC(=O)CC(=O)N2N=C(N3c4ccccc4Sc4ccccc43)CC2c2ccccc2)cc1` (stereo unspecified) showed a TGI above 100 µM.

Take `COc1ccc(C2=N/C(=C\c3ccccc3)C(=O)O2)cc1`: the TGI was above 100 µM.

Compound `CC1(C)C2CCC1(C)[C@H](n1c(=O)n([C@@H]3CC4CCC3(C)C4(C)C)c(=O)n([C@@H]3CC4CCC3(C)C4(C)C)c1=O)C2` registered a TGI above 100 µM.

`CSc1nsc(-c2ccccc2)[s+]1`: the TGI was above 100 µM.

As to `CC(=N/N=C/c1ccccn1)/C(C)=N/N=C(C)/C(C)=N/N=C(C)/C(C)=N/N=C(C)/C(C)=N\N=C\c1ccccn1`, the TGI is above 100 µM.

Consider `Cc1ccc(-c2[nH]c(=O)n(C3OC(CO)C(O)C(O)C3O)c(=O)c2C#N)cc1` (stereo unspecified), for which the TGI was above 100 µM.

`Cc1cc(C(=O)CCCCOc2ccc(C3=NCCO3)cc2)c(C)n1C` came in with a TGI above 100 µM.

(Values after PubChem BioAssay (NCI).)
